Results on 24 compounds are retold here after US9169254B2, “Spiroimidazolone derivative” (Chugai Seiyaku Kabushiki Kaisha, priority 2009, dated 2015).

One experiment addresses T1, human PTH1 receptor (Homo sapiens, UniProt Q03431).
T1 sequence (Q03431 27-593): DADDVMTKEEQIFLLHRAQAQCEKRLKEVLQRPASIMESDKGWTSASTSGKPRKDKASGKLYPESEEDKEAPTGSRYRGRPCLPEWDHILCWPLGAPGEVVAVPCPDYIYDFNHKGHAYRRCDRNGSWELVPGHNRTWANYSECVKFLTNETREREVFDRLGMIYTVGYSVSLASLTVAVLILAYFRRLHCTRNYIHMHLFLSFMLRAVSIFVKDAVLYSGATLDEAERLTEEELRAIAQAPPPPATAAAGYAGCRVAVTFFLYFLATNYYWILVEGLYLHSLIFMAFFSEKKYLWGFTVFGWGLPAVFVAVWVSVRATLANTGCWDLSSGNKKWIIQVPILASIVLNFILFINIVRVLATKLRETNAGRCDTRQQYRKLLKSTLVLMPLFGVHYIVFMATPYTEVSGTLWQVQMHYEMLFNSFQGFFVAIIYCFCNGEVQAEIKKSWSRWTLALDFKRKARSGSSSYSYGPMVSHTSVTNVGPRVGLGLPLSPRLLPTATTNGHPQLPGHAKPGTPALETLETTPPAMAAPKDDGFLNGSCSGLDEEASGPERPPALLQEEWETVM
Put plainly: In vitro cAMP signal activity in HKRK-B7 cells (LLC-PK1 cells overexpressing the human PTH1 receptor). In kind it is cell-based. As to conditions: HKRK-B7 cells; compound at 1×10^−3 M; […]; 0.1 µM.
`CC(=O)N(c1ccc(/C=C/S(=O)(=O)N2CCC3(CC2)N=C(c2cccc(OC(F)(F)F)c2)NC3=O)c(C)c1)C1CCN(C(=O)OC(C)(C)C)CC1` [Compound 604, 4-[acetyl-(3-methyl-4-{(E)-2-[4-oxo-2-(3-trifluoromethoxy-phenyl)-1,3,8-triaza-spiro[4.5]dec-1-ene-8-sulfonyl]-vinyl}-phenyl)-amino]-piperidine-1-carboxylic acid tert-butyl ester]: the “cAMP production activity (%)” value worked out at 21%.

The experiment is the same for the next values; noted with them: HKRK-B7 cells; compound at 1×10^−3 M; cAMP produced as percentage of that produced by hPTH(1-34) at 100 nM.
As for `CC(=O)N(C)Cc1cc(C)c(/C=C/S(=O)(=O)N2CCC3(CC2)N=C(C2CCC(C)CC2)NC3=O)c(C)c1` (stereo not drawn) [Compound 517, N-(3,5-dimethyl-4-{(E)-2-[2-(4-methyl-cyclohexyl)-4-oxo-1,3,8-triaza-spiro[4.5]dec-1-ene-8-sulfonyl]-vinyl}-benzyl)-N-methyl-acetamide], the “cAMP production activity (%)” value was determined as 58%.
Take `Cc1cc(N2C(=O)CNC2=O)ccc1/C=C/S(=O)(=O)N1CCC2(CC1)N=C(C1CCC(C)CC1)NC2=O` (stereo not drawn) [Compound 504, 3-(3-methyl-4-{(E)-2-[2-(4-methyl-cyclohexyl)-4-oxo-1,3,8-triaza-spiro[4.5]dec-1-ene-8-sulfonyl]-vinyl}-phenyl)-imidazolidine-2,4-dione]: the “cAMP production activity (%)” value is on record as 60%.
For the compound `Cc1cc(S(=O)(=O)NCc2cccnc2)ccc1CCS(=O)(=O)N1CCC2(CC1)N=C(c1cccc(C(F)(F)F)c1)NC2=O` [Compound 852, 3-methyl-4-{2-[4-oxo-2-(3-trifluoromethyl-phenyl)-1,3,8-triaza-spiro[4.5]dec-1-ene-8-sulfonyl]-ethyl}-N-pyridin-3-ylmethyl-benzenesulfonamide], the “cAMP production activity (%)” value was determined as 58%.
Turning to `COC(=O)Nc1ccc(C)c(CCS(=O)(=O)N2CCC3(CC2)N=C(C2CCCCC2)NC3=O)c1` [Compound 274, {3-[2-(2-cyclohexyl-4-oxo-1,3,8-triaza-spiro[4.5]dec-1-ene-8-sulfonyl)-ethyl]-4-methyl-phenyl}-carbamic acid methyl ester], the “cAMP production activity (%)” value was 74%.
On the same count and under the same terms, to `O=C1NC(C2CCCCC2)=NC12CCN(S(=O)(=O)/C=C/c1cccc3[nH]c(=O)oc13)CC2` [Compound 188, 2-cyclohexyl-8-[(E)-2-(2-oxo-2,3-dihydro-benzoxazol-7-yl)-ethenesulfonyl]-1,3,8-triaza-spiro[4.5]dec-1-en-4-one] belongs 70%.
As for `CC(=O)N(C)c1cccc(/C=C/S(=O)(=O)N2CCC3(CC2)N=C(c2cccc(OC(F)(F)F)c2)NC3=O)c1C` [Compound 236, N-methyl-N-(2-methyl-3-{(E)-2-[4-oxo-2-(3-trifluoromethoxy-phenyl)-1,3,8-triaza-spiro[4.5]dec-1-ene-8-sulfonyl]-vinyl}-phenyl)-acetamide], the “cAMP production activity (%)” value came out at 40%.
Still for that read-out and setting: to `CCCCC1CCC(C2=NC3(CCN(S(=O)(=O)/C=C/c4c(C)cc(N5C(=O)CNC5=O)cc4C)CC3)C(=O)N2)CC1` (stereo not drawn) [Compound 631, 3-(4-{(E)-2-[2-(4-Butyl-cyclohexyl)-4-oxo-1,3,8-triaza-spiro[4.5]dec-1-ene-8-sulfonyl]-vinyl}-3,5-dimethyl-phenyl)-imidazolidine-2,4-dione] belongs 65%; to `O=C1NC(C2CCCCC2)=NC12CCN(S(=O)(=O)/C=C/c1cccc(F)c1F)CC2` [Compound 184, 2-cyclohexyl-8-[(E)-2-(2,3-difluoro-phenyl)-ethenesulfonyl]-1,3,8-triaza-spiro[4.5]dec-1-en-4-one], 37%.
On the same count and under the same terms, to `CNc1cc(C)c(/C=C/S(=O)(=O)N2CCC3(CC2)N=C(CCCCCCCCC(F)(F)F)NC3=O)c(C)c1` [Compound 690, 8-[(E)-2-(2,6-Dimethyl-4-methylamino-phenyl)-ethenesulfonyl]-2-(9,9,9-trifluoro-nonyl)-1,3,8-triaza-spiro[4.5]dec-1-en-4-one] belongs 86%; to `Cc1cc(C(=O)N2CCC(O)(CF)CC2)cc(C)c1/C=C/S(=O)(=O)N1CCC2(CC1)N=C(c1ccc(F)c(C(F)(F)F)c1)NC2=O` [Compound 641, 8-{(E)-2-[4-(4-fluoromethyl-4-hydroxy-piperidine-1-carbonyl)-2,6-dimethyl-phenyl]-ethenesulfonyl}-2-(4-fluoro-3-trifluoromethyl-phenyl)-1,3,8-triaza-spiro[4.5]dec-1-en-4-one], 85%.
In the case of `Cc1cc(N2C[C@H](O)CC2=O)ccc1/C=C/S(=O)(=O)N1CCC2(CC1)N=C(c1cccc(C(F)(F)F)c1)NC2=O` [Compound 220, 8-{(E)-2-[4-((R)-4-hydroxy-2-oxo-pyrrolidin-1-yl)-2-methyl-phenyl]-ethenesulfonyl}-2-(3-trifluoromethyl-phenyl)-1,3,8-triaza-spiro[4.5]dec-1-en-4-one], the “cAMP production activity (%)” value stood at 80%.
In the case of `Cc1cccc(C2=NC3(CCN(S(=O)(=O)CCc4ccc(C(=O)N(C)C)cc4C)CC3)C(=O)N2)n1` [Compound 97, 3,N,N-trimethyl-4-{2-[2-(6-methyl-pyridin-2-yl)-4-oxo-1,3,8-triaza-spiro[4.5]dec-1-ene-8-sulfonyl]-ethyl}-benzamide], the “cAMP production activity (%)” value turned out to be 4.3%.
As for `Cc1cc2ccc1CCS(=O)(=O)N1CCC3(CC1)N=C(NC3=O)c1ccc(C(F)(F)F)c(c1)OCCCCCOCCN(C)C2=O` [Compound 1432], the “cAMP production activity (%)” value is recorded as 18%.
`CCOCCCCCCC1=NC2(CCN(S(=O)(=O)CCc3c(C)cc(N(C)C(N)=O)cc3C)CC2)C(=O)N1` [Compound 1344, 1-(4-{2-[2-(6-ethoxy-hexyl)-4-oxo-1,3,8-triaza-spiro[4.5]dec-1-ene-8-sulfonyl]-ethyl}-3,5-dimethyl-phenyl)-1-methyl-urea]: the “cAMP production activity (%)” value is recorded as 94%.
For `Cc1cc(N2C(=O)N(C)C(C)(C)C2=O)cc(C)c1/C=C/S(=O)(=O)N1CCC2(CC1)N=C(C1CCC(C)CC1)NC2=O` (stereo not drawn) [Compound 508, 3-(3,5-dimethyl-4-{(E)-2-[2-(4-methyl-cyclohexyl)-4-oxo-1,3,8-triaza-spiro[4.5]dec-1-ene-8-sulfonyl]-vinyl}-phenyl)-1,5,5-trimethyl-imidazolidine-2,4-dione], the “cAMP production activity (%)” value was found to be 24%.
In the case of `Cc1cc(N2C(=O)CNC2=O)cc(C)c1CCS(=O)(=O)N1CCC2(CC1)N=C(C1CCC(C(C)C)CC1)NC2=O` (stereo not drawn) [Compound 884, 3-(4-{2-[2-(4-isopropyl-cyclohexyl)-4-oxo-1,3,8-triaza-spiro[4.5]dec-1-ene-8-sulfonyl]-ethyl}-3,5-dimethyl-phenyl)-imidazolidine-2,4-dione], the “cAMP production activity (%)” value was 59%.
Regarding `Cc1cc(N(C)C(N)=O)cc(C)c1/C=C/S(=O)(=O)N1CCC2(CC1)N=C(CCCCCCCCCO)NC2=O` [Compound 1309, 1-(4-{(E)-2-[2-(9-hydroxy-nonyl)-4-oxo-1,3,8-triaza-spiro[4.5]dec-1-ene-8-sulfonyl]-vinyl}-3,5-dimethyl-phenyl)-1-methyl-urea], the “cAMP production activity (%)” value was found to be 109%.
The same measure, in the same setting: to `CCCCC1CCC(C2=NC3(CCN(S(=O)(=O)/C=C/c4c(C)cc(N(CCOCCO)C(C)=O)cc4C)CC3)C(=O)N2)CC1` (stereo not drawn) [Compound 716, N-(4-{(E)-2-[2-(4-Butyl-cyclohexyl)-4-oxo-1,3,8-triaza-spiro[4.5]dec-1-ene-8-sulfonyl]-vinyl}-3,5-dimethyl-phenyl)-N-[2-(2-hydroxy-ethoxy)-ethyl]-acetamide] belongs 62%; to `O=C1NC(C2CCCCC2)=NC12CCN(S(=O)(=O)/C=C/c1ccccc1C(F)(F)F)CC2` [Compound 179, 2-cyclohexyl-8-[(E)-2-(2-trifluoromethyl-phenyl)-ethenesulfonyl]-1,3,8-triaza-spiro[4.5]dec-1-en-4-one], 49%.
Consider `CC[C@H]1CC[C@H](C2=NC3(CCN(S(=O)(=O)CCc4ccc(N5C(=O)NC(=O)C5(C)C)cc4C)CC3)C(=O)N2)CC1` [Compound 887, 1-(4-{2-[2-(4-ethyl-cyclohexyl)-4-oxo-1,3,8-triaza-spiro[4.5]dec-1-ene-8-sulfonyl]-ethyl}-3-methyl-phenyl)-5,5-dimethyl-imidazolidine-2,4-dione], for which the “cAMP production activity (%)” value is 58%.
On the same count and under the same terms, to `Cc1cc(C(=O)N2CC(O)C2)ccc1CCS(=O)(=O)N1CCC2(CC1)N=C(c1cccc(C(F)(F)F)c1)NC2=O` [Compound 377, 8-{2-[4-(3-hydroxy-azetidine-1-carbonyl)-2-methyl-phenyl]-ethanesulfonyl}-2-(3-trifluoromethyl-phenyl)-1,3,8-triaza-spiro[4.5]dec-1-en-4-one] belongs 64%.
As for `Cc1cc(C(=O)N2CCC(O)CC2)cc(C)c1/C=C/S(=O)(=O)N1CCC2(CC1)N=C(c1cccc(CC#N)c1)NC2=O` [Compound 1282, [3-(8-{(E)-2-[4-(4-Hydroxy-piperidine-1-carbonyl)-2,6-dimethyl-phenyl]-ethenesulfonyl}-4-oxo-1,3,8-triaza-spiro[4.5]dec-1-en-2-yl)-phenyl]-acetonitrile], the “cAMP production activity (%)” value is 63%.
On the same count and under the same terms, to `CCCCCCCCCC1=NC2(CCN(S(=O)(=O)/C=C/c3c(C)cc(OCCC(O)CO)cc3C)CC2)C(=O)N1` (stereo not drawn) [Compound 627, 8-{(E)-2-[4-(3,4-Dihydroxy-butoxy)-2,6-dimethyl-phenyl]-ethenesulfonyl}-2-nonyl-1,3,8-triaza-spiro[4.5]dec-1-en-4-one] belongs 5.3%.
